# Reference: ChEMBL document CHEMBL1201862, “PubChem BioAssay data set” (2004)
# Active and inactive are the calls of the source.
# What was measured:
# [1] = Concentration-dependent survival of SW480 colon cancer line, luminescence detection with CellTiter-Glo, half-maximal inhibitory concentration (AID 1117338); assay type: functional
# [2] = RKO cell viability reduction, dose response, CellTiter-Glo luminescence (AID 1117322); assay type: functional
# [3] = cytotoxicity toward HCT116 cells – cell-based, CellTiter-Glo luminescence, IC50, dose response (AID 1117332); assay type: functional; details: HCT-116
# [4] = SNU-C1 cell viability reduction, dose response, CellTiter-Glo luminescence (AID 1117323); assay type: functional, cell-based
# [5] = cytotoxicity toward Colo320 cells – cell-based, CellTiter-Glo luminescence, IC50, dose response (AID 1117334); assay type: functional; details: COLO 320
# [6] = cytotoxicity toward HT-29 cells – cell-based, CellTiter-Glo luminescence, IC50, dose response (AID 1117330); assay type: functional
# [7] = CellTiter-Glo luminescent dose response of DLD-1 viability loss (AID 1117352); assay type: functional
# [8] = HCT116 cell viability decrease, GSK3B pretreatment – CellTiter-Glo, IC50, dose response (AID 1117339); assay type: functional; details: HCT-116
# [9] = P. falciparum 3D7-ScDHODH growth inhibitors, dose response, SYBR Green, dry powder samples (AID 1159570); assay type: functional, cell-based;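 further: parasite growth measured after 72 hours of compound exposure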
# [10] = P. falciparum Dd2 growth inhibitors, dose response, SYBR Green, cherry-picked samples (AID 1159567); assay type: functional, cell-based
# [11] = P. falciparum Dd2 growth inhibitors, dose response, SYBR Green, dry powder samples (AID 1159566); assay type: functional, cell-based;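 further: potency for growth inhibition with lower SYBR green DNA signal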
# [12] = P. falciparum ATP4 D1247Y mutant growth inhibitors, dose response, NITD609-resistant line, SYBR Green, dry powder (AID 1159571); assay type: functional, cell-based;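 further: parasites synchronized at ring stage by sorbitol before testing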
# [13] = target: T1, Tyrosine-protein phosphatase non-receptor type 7 (Homo sapiens, UniProt P35236); test: inhibitors of human HePTP phosphatase, […], biochemical, absorbance, leukemia target (AID 521); assay type: functional
# T1 sequence (P35236 whole entry): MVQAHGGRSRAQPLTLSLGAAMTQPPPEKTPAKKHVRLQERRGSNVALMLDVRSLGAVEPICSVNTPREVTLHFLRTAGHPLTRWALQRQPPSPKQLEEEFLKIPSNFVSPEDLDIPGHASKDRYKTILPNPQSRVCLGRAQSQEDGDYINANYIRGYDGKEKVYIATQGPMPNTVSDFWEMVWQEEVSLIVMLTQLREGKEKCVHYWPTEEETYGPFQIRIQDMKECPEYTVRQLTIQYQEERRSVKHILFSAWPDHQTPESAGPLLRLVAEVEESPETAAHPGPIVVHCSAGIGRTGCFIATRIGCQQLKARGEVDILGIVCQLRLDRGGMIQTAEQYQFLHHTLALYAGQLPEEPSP
# [14] = test system: Streptococcus sp. 'group A'; test: growth inhibition of control SK(-) GAS strain, dose response, counter-screen for streptokinase expression inhibitor project, luminescence, kanamycin, BacTiterGlo, confirmation (AID 1900); assay type: functional, organism-based
# [15] = target: T2, Streptokinase A (Streptococcus pyogenes serotype M1, UniProt P10520); test: S. pyogenes streptokinase expression inhibitors, potency, dose response, plasminogen activation absorbance, OD405 (AID 1914); assay type: functional, Streptococcus pyogenes M1 GAS;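 further: secreted streptokinase activity via plasminogen activation per viability signal from cell pellet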
# T2 sequence (P10520 whole entry): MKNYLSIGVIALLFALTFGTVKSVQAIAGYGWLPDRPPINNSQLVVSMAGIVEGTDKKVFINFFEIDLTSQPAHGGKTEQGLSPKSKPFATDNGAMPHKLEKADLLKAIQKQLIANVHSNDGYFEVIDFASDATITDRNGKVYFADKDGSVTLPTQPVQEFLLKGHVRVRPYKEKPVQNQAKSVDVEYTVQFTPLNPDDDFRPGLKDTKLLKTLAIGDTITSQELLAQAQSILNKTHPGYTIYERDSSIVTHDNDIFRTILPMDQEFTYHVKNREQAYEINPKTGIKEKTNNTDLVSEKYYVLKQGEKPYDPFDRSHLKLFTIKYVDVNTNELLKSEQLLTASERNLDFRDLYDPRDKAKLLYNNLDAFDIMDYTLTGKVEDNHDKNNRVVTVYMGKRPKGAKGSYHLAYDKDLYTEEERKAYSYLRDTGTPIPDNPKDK
# [16] = target: Large T antigen (Simian virus 40, UniProt P03070); assay type: functional, Betapolyomavirus macacae;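 further: Confirmatory-stage PubChem screen for compounds that inhibit SV40 T antigen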
# Large T antigen, sequence (P03070 whole entry): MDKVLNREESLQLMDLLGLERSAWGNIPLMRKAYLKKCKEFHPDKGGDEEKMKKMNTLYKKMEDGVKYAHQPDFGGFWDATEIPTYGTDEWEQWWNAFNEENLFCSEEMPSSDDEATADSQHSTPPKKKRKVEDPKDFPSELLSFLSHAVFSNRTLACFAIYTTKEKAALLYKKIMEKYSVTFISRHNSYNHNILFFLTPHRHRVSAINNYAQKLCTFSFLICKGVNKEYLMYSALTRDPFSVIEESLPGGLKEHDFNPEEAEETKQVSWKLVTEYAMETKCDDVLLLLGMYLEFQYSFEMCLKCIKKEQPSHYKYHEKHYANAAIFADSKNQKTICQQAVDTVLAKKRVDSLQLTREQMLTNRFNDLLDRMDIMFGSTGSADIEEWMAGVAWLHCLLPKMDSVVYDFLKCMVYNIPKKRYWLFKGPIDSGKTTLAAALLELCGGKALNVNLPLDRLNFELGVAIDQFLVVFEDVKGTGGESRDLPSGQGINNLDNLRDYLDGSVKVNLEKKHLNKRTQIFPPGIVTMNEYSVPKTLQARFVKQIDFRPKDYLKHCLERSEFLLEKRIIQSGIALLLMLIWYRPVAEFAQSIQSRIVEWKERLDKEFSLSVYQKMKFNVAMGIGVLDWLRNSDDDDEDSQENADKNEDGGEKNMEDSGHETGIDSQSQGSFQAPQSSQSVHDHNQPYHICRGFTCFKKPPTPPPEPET
# [17] = target: E3 ubiquitin-protein ligase XIAP (Homo sapiens, UniProt P98170); test: Counter Screen using XIAP-Bir3 for Chemical Antagonists of Bir1/2 domains of IAP-family anti-apoptotic proteins. [Related pubchem assays (depositor defined):AID1018, AID1449, AID1514, AID1638, AID1749, AID1750, AID488957, AID488963]
# E3 ubiquitin-protein ligase XIAP, sequence (P98170 whole entry): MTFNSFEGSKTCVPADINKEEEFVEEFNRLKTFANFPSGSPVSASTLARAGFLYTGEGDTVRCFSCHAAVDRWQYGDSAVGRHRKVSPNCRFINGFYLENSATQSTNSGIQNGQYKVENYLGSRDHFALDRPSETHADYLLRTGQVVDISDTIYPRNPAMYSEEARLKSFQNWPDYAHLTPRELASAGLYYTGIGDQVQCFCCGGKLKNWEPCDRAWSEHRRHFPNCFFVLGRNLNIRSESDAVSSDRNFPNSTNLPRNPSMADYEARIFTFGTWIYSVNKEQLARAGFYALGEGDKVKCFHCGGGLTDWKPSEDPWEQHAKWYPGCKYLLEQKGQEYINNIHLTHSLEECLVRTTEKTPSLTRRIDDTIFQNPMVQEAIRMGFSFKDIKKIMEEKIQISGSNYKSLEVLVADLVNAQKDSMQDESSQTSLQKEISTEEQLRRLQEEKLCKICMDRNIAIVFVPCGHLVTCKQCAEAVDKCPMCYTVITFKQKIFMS
# [18] = test system: Streptococcus; test: Group A Streptococcus viability loss, dose response, counter-screen for streptokinase expression inhibitor project, luminescence, BacTiterGlo (AID 1915); assay type: functional, organism-based;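 further: potency for reduction of bacterial viability or growth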
# [19] = target: T3, Histone-lysine N-methyltransferase NSD2 (Homo sapiens, UniProt O96028); assay type: biochemical
# T3 sequence (O96028 whole entry): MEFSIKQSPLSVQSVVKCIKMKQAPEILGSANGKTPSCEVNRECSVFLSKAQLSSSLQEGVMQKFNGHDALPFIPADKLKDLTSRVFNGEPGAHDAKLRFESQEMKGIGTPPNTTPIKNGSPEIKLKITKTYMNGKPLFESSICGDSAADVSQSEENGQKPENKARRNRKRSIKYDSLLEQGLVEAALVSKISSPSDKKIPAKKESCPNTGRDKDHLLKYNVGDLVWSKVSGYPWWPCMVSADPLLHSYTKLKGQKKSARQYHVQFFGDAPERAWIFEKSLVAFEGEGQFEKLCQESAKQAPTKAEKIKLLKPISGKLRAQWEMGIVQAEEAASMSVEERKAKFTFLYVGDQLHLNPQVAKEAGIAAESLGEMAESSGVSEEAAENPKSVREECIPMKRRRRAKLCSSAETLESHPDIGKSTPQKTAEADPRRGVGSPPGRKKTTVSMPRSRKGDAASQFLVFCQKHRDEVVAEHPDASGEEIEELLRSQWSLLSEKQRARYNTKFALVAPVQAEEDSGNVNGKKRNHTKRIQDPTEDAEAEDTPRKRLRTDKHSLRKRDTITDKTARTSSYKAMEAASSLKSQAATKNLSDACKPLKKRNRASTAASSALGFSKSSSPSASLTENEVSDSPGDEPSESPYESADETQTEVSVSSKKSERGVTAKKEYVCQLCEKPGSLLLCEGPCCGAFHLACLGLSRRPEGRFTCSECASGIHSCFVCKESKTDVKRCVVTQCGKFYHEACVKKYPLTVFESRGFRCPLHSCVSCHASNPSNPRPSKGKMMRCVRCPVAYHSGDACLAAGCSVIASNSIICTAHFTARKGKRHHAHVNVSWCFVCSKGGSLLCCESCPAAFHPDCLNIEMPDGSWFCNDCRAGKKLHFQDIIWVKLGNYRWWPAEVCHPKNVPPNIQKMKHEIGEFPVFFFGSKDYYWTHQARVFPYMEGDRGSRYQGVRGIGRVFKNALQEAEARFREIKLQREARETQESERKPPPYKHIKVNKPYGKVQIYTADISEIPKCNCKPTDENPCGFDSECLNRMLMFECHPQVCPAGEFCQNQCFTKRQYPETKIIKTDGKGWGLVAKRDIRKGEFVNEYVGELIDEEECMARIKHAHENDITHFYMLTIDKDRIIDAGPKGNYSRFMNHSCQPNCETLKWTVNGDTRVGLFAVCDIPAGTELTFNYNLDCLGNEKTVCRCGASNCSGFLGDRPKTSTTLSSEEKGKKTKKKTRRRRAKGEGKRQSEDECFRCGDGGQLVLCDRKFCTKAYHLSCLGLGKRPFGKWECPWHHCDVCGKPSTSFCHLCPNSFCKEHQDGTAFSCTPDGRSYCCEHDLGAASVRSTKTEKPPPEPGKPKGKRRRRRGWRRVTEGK
# [20] = target: T4, Fibrinogen beta chain (Homo sapiens, UniProt P02675); test: Fluorescence polarization-based biochemical high throughput dose response assay to identify inhibitors that disrupt the binding of a cyclic peptide (Tn6) to the fibrin proteolytic product D-Dimer and fragment E complex [DD(E )].
# T4 sequence (P02675 whole entry, the tested form may be a part): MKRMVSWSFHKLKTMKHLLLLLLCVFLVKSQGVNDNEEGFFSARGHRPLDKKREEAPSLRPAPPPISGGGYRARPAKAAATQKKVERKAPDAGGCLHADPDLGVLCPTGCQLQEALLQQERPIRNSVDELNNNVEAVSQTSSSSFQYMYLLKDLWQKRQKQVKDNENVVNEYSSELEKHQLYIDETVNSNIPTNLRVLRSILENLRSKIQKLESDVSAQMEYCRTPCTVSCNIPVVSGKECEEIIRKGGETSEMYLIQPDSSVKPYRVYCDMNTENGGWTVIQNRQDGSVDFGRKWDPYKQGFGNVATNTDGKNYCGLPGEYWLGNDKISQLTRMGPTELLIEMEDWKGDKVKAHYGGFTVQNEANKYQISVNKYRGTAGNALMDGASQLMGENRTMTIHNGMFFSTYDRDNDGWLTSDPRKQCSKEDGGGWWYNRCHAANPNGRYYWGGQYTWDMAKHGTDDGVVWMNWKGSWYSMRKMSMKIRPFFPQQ
# [21] = target: T5, Tyrosyl-DNA phosphodiesterase 2 (Homo sapiens, UniProt O95551); test: human TDP2 enzyme inhibitors, dose response, biochemical, epi absorbance, IC50 (AID 743297)
# T5 sequence (O95551 whole entry): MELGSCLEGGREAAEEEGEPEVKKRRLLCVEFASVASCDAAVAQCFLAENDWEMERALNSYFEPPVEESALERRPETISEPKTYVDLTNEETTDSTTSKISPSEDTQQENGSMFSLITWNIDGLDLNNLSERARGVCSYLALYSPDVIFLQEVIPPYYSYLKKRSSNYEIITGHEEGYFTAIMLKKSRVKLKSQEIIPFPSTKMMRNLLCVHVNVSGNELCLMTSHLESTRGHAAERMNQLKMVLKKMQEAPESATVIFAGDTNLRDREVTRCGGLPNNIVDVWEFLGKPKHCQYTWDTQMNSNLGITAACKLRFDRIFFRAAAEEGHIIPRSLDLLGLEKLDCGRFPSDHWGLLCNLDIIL
# [22] = target: T4, Fibrinogen beta chain; test: Fluorescence polarization-based biochemical high throughput dose response assay to identify inhibitors that disrupt the binding of a cyclic peptide (Tn7) to the fibrin proteolytic product D-Dimer and fragment E complex [DD(E )].
# [23] = Dose-response inhibition of insulin secretion in a rat insulinoma line at 5 mM glucose (AID 1117331); assay type: functional, cell-based; details: INS-1E
# [24] = half-maximal inhibitory concentration for glucagon-like peptide-1 release, STC-1 cell line, dose-response (AID 1117345); assay type: functional, cell-based
# [25] = Glucagon-like peptide 1 release potency, NCI-H716 cell line, dose-response, half-maximal inhibitory concentration (AID 1117344); assay type: functional, cell-based
compound,measurement,setting,value
CN1CCC(=C2c3ccccc3C=Cc3ccccc32)CC1 [CYPROHEPTADINE],IC50,[1],5.92 µM (inactive)
same,IC50,[2],11.3 µM (inactive)
same,IC50,[3],> 20 µM (inactive)
same,IC50,[4],10.8 µM (inactive)
same,IC50,[5],> 20 µM (inactive)
same,IC50,[6],> 20 µM (inactive)
same,IC50,[7],> 20 µM (inactive)
same,IC50,[8],> 20 µM (inactive)
CCC(=O)N1CCC2(CC1)CN(S(=O)(=O)c1ccccc1)[C@@H](CO)c1[nH]c3cc(OC)ccc3c12,AC50,[9],1.31 µM (active)
same,AC50,[10],2.04 µM (active)
same,AC50,[11],1.47 µM (active)
same,AC50,[12],0.961 µM (active)
c1cc2c(cc1Cn1cnnn1)OCO2,IC50,[13],> 100 µM (not active)
O=C(O)CCCNc1cc(N2CCN(C(=O)c3ccco3)CC2)c2noc3c2c1C(=O)c1ccccc1-3,EC50,[14],5.52 µM (active)
same,EC50,[15],> 150 µM (not active)
same,IC50,[16],> 100 µM (active)
same,IC50,[17],> 20 µM (inactive)
same,EC50,[18],31.8 µM (active)
same,AC50,[19],14.8 µM (active)
same,IC50,[20],4.96 µM (active)
same,IC50,[21],> 128 µM (inactive)
same,IC50,[22],> 83.3 µM (inactive)
COc1ccc(/C=N/NC(=O)c2ccncc2)cc1OC [VERAZIDE],IC50,[23],> 33.3 µM (inactive)
same,IC50,[24],> 40 µM (inactive)
same,IC50,[25],20 µM (inactive)
